Assay results from PubChem BioAssay AID248 (DTP/NCI, 2004).
Several values for one entry are separate records, joined by “and”; a condition that tells them apart may be missing. Equal values may be shown once. Toxic doses and inconclusive results are not listed. No stated cut-off is given here; in the data, active means T/C of 150% or more; inactive means T/C below 125%.

Tested on: L1210 leukemia ip in BDF1 mice, survival T/C
Assay: NCI In Vivo Anticancer Drug Screen. Data for tumor model L1210 Leukemia (intraperitoneal) in B6D2F1 (BDF1) mice
Details: endpoint: mean survival time, higher = longer survival
How it was run: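 Transplanted-tumor mice were given test agent; controls received vehicle only. Survival readings from the two groups were divided (treated over control).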

[1] = dose: 100.0 mg/kg/injection, schedule: Q04DX003 (ip), vehicle: Klucel (hydroxypropylcellulose) (HPC)
[2] = dose: 100.0 mg/kg/injection, schedule: Q04DX003 (ip), vehicle: saline with Tween-80
[3] = dose: 200.0 mg/kg/injection, schedule: Q04DX003 (ip), vehicle: Klucel (hydroxypropylcellulose) (HPC)
[4] = dose: 200.0 mg/kg/injection, schedule: Q04DX003 (ip), vehicle: saline with Tween-80
[5] = dose: 400.0 mg/kg/injection, schedule: Q04DX003 (ip), vehicle: Klucel (hydroxypropylcellulose) (HPC)
[6] = dose: 400.0 mg/kg/injection, schedule: Q04DX003 (ip), vehicle: saline with Tween-80

Measured: T/C

O=C(CNC(=O)c1ccc(C(=O)NCC(=O)Nc2ccc(C3=NCCCN3)cc2)cc1)Nc1ccc(C2=NCCCN2)cc1
active: dose: 20.0 mg/kg/injection, schedule: Q01DX015 (ip), vehicle: methylcellulose (MC) 229 % of control | dose: 30.0 mg/kg/injection, schedule: Q01DX015 (ip), vehicle: methylcellulose (MC) 186 % of control | dose: 40.0 mg/kg/injection, schedule: Q01DX009 (ip), vehicle: saline 153 % of control | dose: 40.0 mg/kg/injection, schedule: Q01DX015 (ip), vehicle: methylcellulose (MC) 191 % of control | dose: 60.0 mg/kg/injection, schedule: Q01DX009 (ip), vehicle: Klucel (hydroxypropylcellulose) (HPC) 256 % of control | dose: 80.0 mg/kg/injection, schedule: Q01DX009 (ip), vehicle: Klucel (hydroxypropylcellulose) (HPC) 300 % of control
inactive: dose: 0.62 mg/kg/injection, schedule: Q01DX015 (ip), vehicle: methylcellulose (MC) 101 % of control | dose: 1.25 mg/kg/injection, schedule: Q01DX009 (ip), vehicle: saline 97 % of control | dose: 1.25 mg/kg/injection, schedule: Q01DX015 (ip), vehicle: methylcellulose (MC) 98 % of control | dose: 2.5 mg/kg/injection, schedule: Q01DX009 (ip), vehicle: saline 110 % of control | dose: 2.5 mg/kg/injection, schedule: Q01DX015 (ip), vehicle: methylcellulose (MC) 98 % of control | dose: 3.75 mg/kg/injection, schedule: Q01DX015 (ip), vehicle: methylcellulose (MC) 116 % of control | dose: 10.0 mg/kg/injection, schedule: Q01DX009 (ip), vehicle: saline 113 % of control | dose: 25.0 mg/kg/injection, schedule: Q01DX001 (ip), vehicle: methylcellulose (MC) 106 % of control | dose: 50.0 mg/kg/injection, schedule: Q01DX001 (ip), vehicle: methylcellulose (MC) 113 % of control | dose: 120.0 mg/kg/injection, schedule: Q01DX009 (ip), vehicle: Klucel (hydroxypropylcellulose) (HPC) 115 % of control | dose: 160.0 mg/kg/injection, schedule: Q01DX009 (ip), vehicle: Klucel (hydroxypropylcellulose) (HPC) 102 % of control

OC(COc1ccccc1)COc1ccccc1
inactive: [1] 105 % of control | [2] 96 % of control | [3] 105 % of control | [4] 95 % of control | [5] 106 % of control | [6] 93 % of control

Cc1nc(N)[nH]c(=O)c1CCCCC#N
inactive: dose: 100.0 mg/kg/injection, schedule: Q01DX001 (ip), vehicle: Klucel (hydroxypropylcellulose) (HPC) 100 % of control | dose: 100.0 mg/kg/injection, schedule: Q01DX009 (ip), vehicle: Klucel (hydroxypropylcellulose) (HPC) 93 % of control and 106 % of control | dose: 100.0 mg/kg/injection, schedule: Q04DX002 (ip), vehicle: Klucel (hydroxypropylcellulose) (HPC) 100 % of control and 102 % of control | [1] 97 % of control | dose: 200.0 mg/kg/injection, schedule: Q01DX001 (ip), vehicle: Klucel (hydroxypropylcellulose) (HPC) 100 % of control | dose: 200.0 mg/kg/injection, schedule: Q01DX009 (ip), vehicle: Klucel (hydroxypropylcellulose) (HPC) 95 % of control and 100 % of control | dose: 200.0 mg/kg/injection, schedule: Q04DX002 (ip), vehicle: Klucel (hydroxypropylcellulose) (HPC) 102 % of control and 107 % of control | [3] 111 % of control | dose: 400.0 mg/kg/injection, schedule: Q01DX001 (ip), vehicle: Klucel (hydroxypropylcellulose) (HPC) 100 % of control | dose: 400.0 mg/kg/injection, schedule: Q01DX009 (ip), vehicle: Klucel (hydroxypropylcellulose) (HPC) 117 % of control | dose: 400.0 mg/kg/injection, schedule: Q04DX002 (ip), vehicle: Klucel (hydroxypropylcellulose) (HPC) 100 % of control and 104 % of control | [5] 102 % of control

COc1ccc(OCC(=O)c2ccccc2)cc1
inactive: [1] 102 % of control | [3] 98 % of control | [5] 98 % of control

C=C1C(=O)OC2C1CCC(C)C1(O)C=CC(=O)C21C (stereo unspecified)
inactive: dose: 6.25 mg/kg/injection, schedule: Q01DX009 (ip), vehicle: saline 98 % of control | dose: 12.5 mg/kg/injection, schedule: Q01DX009 (ip), vehicle: saline 98 % of control | dose: 25.0 mg/kg/injection, schedule: Q01DX009 (ip), vehicle: saline 101 % of control | dose: 50.0 mg/kg/injection, schedule: Q01DX009 (ip), vehicle: saline 103 % of control

CCCCCCOC(=O)C(O)c1ccccc1 (stereo unspecified)
inactive: dose: 50.0 mg/kg/injection, schedule: Q01DX009 (ip), vehicle: saline with Tween-80 95 % of control | dose: 100.0 mg/kg/injection, schedule: Q01DX009 (ip), vehicle: saline with Tween-80 98 % of control | dose: 200.0 mg/kg/injection, schedule: Q01DX009 (ip), vehicle: saline with Tween-80 95 % of control

O=C(/C=C/c1ccccc1)NC(=S)Nc1ccccc1C(F)(F)F
inactive: dose: 12.5 mg/kg/injection, schedule: Q01DX009 (ip), vehicle: saline with Tween-80 93 % of control and 100 % of control | dose: 100.0 mg/kg/injection, schedule: Q01DX001 (ip), vehicle: saline with Tween-80 92 % of control | dose: 100.0 mg/kg/injection, schedule: Q04DX002 (ip), vehicle: saline with Tween-80 91 % of control | [2] 103 % of control | dose: 200.0 mg/kg/injection, schedule: Q01DX001 (ip), vehicle: saline with Tween-80 97 % of control | dose: 200.0 mg/kg/injection, schedule: Q04DX002 (ip), vehicle: saline with Tween-80 95 % of control and 101 % of control | [4] 91 % of control | dose: 400.0 mg/kg/injection, schedule: Q01DX001 (ip), vehicle: saline with Tween-80 112 % of control | dose: 400.0 mg/kg/injection, schedule: Q01DX009 (ip), vehicle: saline with Tween-80 86 % of control | dose: 400.0 mg/kg/injection, schedule: Q04DX002 (ip), vehicle: saline with Tween-80 93 % of control and 95 % of control | [6] 91 % of control
